# Laboratory results: patent US8148508 (dated 2012)
# Experiments:
# clostripain [1] = assay: 10 mM Tris, 1 mM EDTA, 5 mM CaCl2 (pH 8.0), varying clostripain ratios; details: 21° C.; also 40° C., up to 10 hr
# clostripain [2] = assay: cell free extract containing T7tag-GSDR-[GLP-2(1-34)]6 precursor, pH 6.4 NaH2PO4, 1 mM CaCl2, 1 mM DTT; details: 25° C., up to approximately 3 hours
# clostripain [3] = assay: clostripain digestion under different pH conditions
# recombinant clostripain = assay: cell free extract with 0.2 units of recombinant clostripain per mg precursor polypeptide; details: up to up to 3 hours
# clostripain [4] = assay: 50 mM HEPES buffer (pH 6.7), 1 mM CaCl2, 1 mM cysteine, 4.8 M urea, 10, 20 and 35% ethanol; details: 25° C., up to 30 minutes
fragment found (clostripain [1]),fragment found (clostripain [2]),fragment found (clostripain [3]),fragment found (recombinant clostripain),fragment found (clostripain [4]),Sequence
truncated GLP-2(21-34),GLP-2 fragment (21-34),–,–,–,HADGSFSDEMNTILDNLAARDFINWLIQTKITDR
–,–,GLP-2(21-33),GLP-2 fragment (21-33),GLP-2(21-33),HGDGSFSDEMNTILDNLAARDFINWLIQTKITD
